According to patent US20260174744A1, “COMPOUNDS, COMPOSITIONS, AND METHODS OF TREATING RNA VIRAL INFECTIONS” (priority 2024, published 2026):

Assays:
Huh-luc/neo-ET cells = assay: XTT cell viability assay, Huh-luc/neo-ET; format: cell-based; details: 72 hours, read-out: HCV 1b - TC50
Experimental: (§1) Twenty-four hours after seeding the cells, the cell culture supernatant was removed from each well and replaced with 175 μL fresh complete medium minus G418. Test compounds were evaluated at a high-test concentration of 10 μM and five serial half-logarithmic dilutions in three biological replicates. In three biological replicates, Sofosbuvir was evaluated in parallel at a high-test concentration of 1 μM and five serial half-logarithmic dilutions. Compounds were first serially diluted in DMSO to 400× of each final in-well concentration. An intermediate 8× solution was prepared in a complete medium and then added to the cells in a volume of 25 μL per well. A complete medium containing an equal percentage of DMSO (v/v) was added to vehicle-treated control cells. The final DMSO concentration was 0.25% (v/v) for all samples. The cells were incubated for an additional 72 hours at 37° C./5% CO2, then HCV replication was measured by luciferase activity and cell viability was assessed in parallel using an XTT colorimetric assay.
(§2) Huh-luc/neo-ET cell viability was measured at 72 hours after treatment using the tetrazolium dye XTT (2,3-bis(2-methoxy-4-nitro-5-sulfophenyl)-5[(phenylamino)carbonyl]-2H-tetrazolium hydroxide). Mitochondrial enzymes of metabolically active cells metabolize XTT-tetrazolium to a soluble formazan product. XTT solution was prepared fresh at 1 mg/mL in DMEM. Phenazine methosulfate (PMS) solution was prepared at 0.15 mg/mL in PBS and stored in the dark at −20° C. An XTT/PMS stock was prepared immediately before use by adding 40 μL of PMS per ml of XTT solution. Fifty microliters (50 μL) XTT/PMS were added per well, and the cells were incubated for 4 hours at 37° C. The cell culture plates were then sealed with adhesive plate sealers and shaken gently or inverted several times to mix the soluble formazan product. The formazan product was measured spectrophotometrically by absorbance at 450/650 nm on a Vmax plate reader (Molecular Devices). The raw data in Softmax Pro 5.4.2 software was imported into Microsoft Excel for further analysis. Data are presented as absorbance values (450/650 nm) or the percentage of viable cells relative to vehicle-treated control (mean+1−standard deviation, n=3 biological replicates from one independent experiment).

MRC-5 cells = assay: Toxicity XTT in MRC-5 (229E cytoprotection assay); details: read-out: CoV229E - TC50; MRC-5; XTT; 6 days
HCV 1b = assay: microbe, parasite or virus in culture; format: cell-based; details: for HCV 1b - percent effect: @ 10 μM
Norovirus Norwalk Virus = assay: Norwalk virus CPE assay, HG23 (Method 6); format: cell-based
Excerpt: The antiviral assays were cell line based and consisted in transfecting each of the viruses tested in a compatible cell line. Upon infection and after drug treatment, viral survival and cell toxicity were reported from the readout of three different assays: cytopathic effect (CPE), viral yield reduction (VYR), or immunofluorescence (IF). A breakdown of the results obtained can be found in Table 3 in which EC50 values have been converted to account for variations in FBS concentrations across assays.
Compounds were tested in an assay medium containing 2% fetal bovine serum (FBS). Test compounds were added to cells prior to infection with virus at a multiplicity of infection (MOI) sufficient to induce visible cytopathic effect (CPE). […] Additionally, the EC90 was defined as the concentration required to achieve a 1 log10 reduction in viral titer. Dose-response curves depicting viral CPE (red line) and compound cytotoxicity (purple line) were generated to support these analyses.

[1] = Protein binding in FBS, rapid equilibrium dialysis (RED); details: 10% FBS (text/footnote)
[2] = XTT cell viability assay, Huh-luc/neo-ET; format: cell-based; details: human, Huh-luc/neo-ET cells, read-out: HCV 1b - TC50
Experimental: as §1, §2

CoV229E = assay: Anti-Coronavirus 229E cytoprotection assay, MRC-5; format: cell-based; details: Human coronavirus 229E, MRC5, 6 days, XTT
[3] = tested on: MCF7 wild-type cell lines; assay: MCF7 growth inhibition assay (Cell Titre Glo 2.0); format: cell-based; details: Homo sapiens, 120 hours, read-out: MCF-7 IC50
Experimental: The growth inhibition properties of inhibitors on MCF7 wild-type cell lines were evaluated using the Cell Titre Glo 2.0 cell viability reagent. The assay utilized 384-well black clear bottom plates with 20 μl of MCF7 wild-type cell suspension mixed with reference/test compounds and 20 μl of Cell Titre Glo 2.0 reagent. Cells were seeded at a density of 1000 cells/well in DMEM High Glucose culture media+10% Fetal Bovine Serum (FBS). Staurosporine and Camptothecin served as positive controls for confirming cytotoxicity at a concentration of 30 μM, and vehicle control of 1% DMSO was used to standardize conditions across all test points. The assay and culture media both contained 1% DMSO. […] The incubation period for the assay was set at 120 hours, after which growth inhibition was assessed. Using a multi-mode reader, the assay readout was based on luminescence measured in Relative Light Units (RLUs). The viability luminescence signal was monitored continually from the same wells over an extended period, allowing for detailed analysis of cell viability. […]
Cells were maintained and seeded in 384 […] plates, maintaining 1000 cells/well. […] This was followed by the addition of CTG reagent as per the kit's instruction protocol for 30 minutes and RLU data to be recorded. Post plate read data to be analyzed using GraphPad Prism for software IC50 value generation. […]

[4] = Toxicity XTT in MRC-5 (229E cytoprotection assay); details: human

| Structure (SMILES) | CC50 (Huh-luc/neo-ET cells) [µM] | CC50 (MRC-5 cells) [µM] | other results |
| --- | --- | --- | --- |
| COc1ccc(-c2c(Cc3ccc(OCCC4CCCCC4)cc3)c3ccc(OC)cc3n2C)cc1 [MCAA-05] | > 10 | > 5 |  |
| Fc1ccc(-c2cc3sccc3n2Cc2ccc(OCCN3CCCCC3)cc2)cc1 [MCAA-06] | > 10 | 1.53 |  |
| Nc1cccc2nc(-c3ccc(F)cc3)n(Cc3ccc(OCCC4CCCCC4)cc3)c12 [MCAA-09] | > 10 | > 5 |  |
| Cc1c(-c2ccc(O)cc2)n(Cc2ccc(OCCC3CCCCC3)cc2)c2ccc(O)cc12 [MCAA-04] | > 10 | 2.7 |  |
| Nc1cccc2c1nc(-c1ccc(F)cc1)n2Cc1ccc(OCCN2CCCCC2)cc1 [MCAA-10] | > 10 | > 5 |  |
| Nc1cccc2c1nc(-c1ccc(F)cc1)n2Cc1ccc(OCCC2CCCCC2)cc1 [MCAA-11] | 5.82 | > 5 |  |
| O=C(O)c1ccc(-c2c(CC3CCCC3)c3ccc(F)cc3n2Cc2ccc(OCCN3CCCCC3)cc2)cc1 [MCAA-02] | > 10 | > 5 |  |
| CCC(CC)COC(=O)[C@H](C)N[P@](=O)(OC[C@H]1O[C@@](C#N)(c2ccc3c(N)ncnn23)[C@H](O)[C@@H]1O)Oc1ccccc1 [Remdesivir, reference compound] |  | > 1 |  |
| O=[N+]([O-])c1cccc2nc(-c3ccc(F)cc3)n(Cc3ccc(OCCC4CCCCC4)cc3)c12 [MCAA-14] | > 10 | > 5 | HCV 1b - percent effect (HCV 1b): 34% @ 10 μM |
| O=C(O)c1ccc(-c2c(CC3CCCC3)c3ccc(F)cc3n2Cc2ccc(OCCC3CCCCC3)cc2)cc1 [MCAA-03] | > 10 | 2.47 |  |
| O=[N+]([O-])c1cccc2c1nc(-c1ccc(F)cc1)n2Cc1ccc(OCCN2CCCCC2)cc1 [MCAA-13] | > 10 | > 5 |  |
| Cc1c(-c2ccc(O)cc2)n(Cc2ccc(OCCN3CCCCC3)cc2)c2ccc(O)cc12 [Pipendoxifene] |  | > 1 | percent effect printed in EC50 column (Norovirus Norwalk Virus; 2% FBS, @ 5 μM): 31% @; percent effect printed in Corrected EC50 column (Norovirus Norwalk Virus; @ 1.25 μM (concentration corrected for 2% FBS)): 31% @ 1.25; unbound fraction [1]: 5% |
| CC(C)OC(=O)[C@H](C)N[P@](=O)(OC[C@H]1O[C@@H](n2ccc(=O)[nH]c2=O)[C@](C)(F)[C@@H]1O)Oc1ccccc1 [Sofosbuvir, reference compound] | > 1 |  |  |
| Nc1cccc2nc(-c3ccc(F)cc3)n(Cc3ccc(OCCN4CCCCC4)cc3)c12 [MCAA-08] | > 10 | > 5 |  |
| O=[N+]([O-])c1cccc2c1nc(-c1ccc(F)cc1)n2Cc1ccc(OCCC2CCCCC2)cc1 [MCAA-15] | > 10 | > 5 | HCV 1b - percent effect (HCV 1b): 38% @ 10 μM |
| Fc1ccc(-c2cc3sccc3n2Cc2ccc(OCCC3CCCCC3)cc2)cc1 [MCAA-07] | > 10 | > 5 | HCV 1b - percent effect (HCV 1b): 30% @ 10 μM |
| O=[N+]([O-])c1cccc2nc(-c3ccc(F)cc3)n(Cc3ccc(OCCN4CCCCC4)cc3)c12 [MCAA-12] | > 10 | > 5 |  |
| COc1ccc(-c2c(Cc3ccc(OCCN4CCCCC4)cc3)c3ccc(OC)cc3n2C)cc1 [MCAA-01] |  |  | EC50 (HCV 1b; Hepatitis C virus, Huh-luc/neo-ET replicon, 72 hours, luciferase): 3.61 µM; CC50 at 72 h [2]: > 10 µM; EC50 (CoV229E): 1.88 µM; IC50 [3]: > 10 µM; CC50 at 6 days [4]: > 5 µM |
